Among the data in patent US20250099478A1, “PLASMA KALLIKREIN INHIBITORS” (Merck Sharp & Dohme LLC, priority 2022, published 2025) are IC50 values, retold here.

The target in one assay is T1, Human plasma kallikrein (Homo sapiens, UniProt P03952).
T1 construct: yields a heavy chain (371 amino acids) and a light chain (248 amino acids); purchased Enzyme Research Laboratories
The assay is described as follows: Plasma Kallikrein Assay. The format is biochemical. As to conditions: purified Human plasma kallikrein 0.5 nM, substrate Acetyl-K-P-R-AFC; read-out: PKal IC50. In outline:
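Purified human plasma kallikrein (0.5 nM) hydrolysing fluorogenic Acetyl-K-P-R-AFC ([…]) in 50 mM HEPES pH 7.4, 150 mM NaCl, 5 mM CaCl2, 0.1% PEG 8000, at rt or 37 °C after enzyme–inhibitor equilibration. IC50 from four-parameter logistic fit; Ki via Cheng–Prusoff.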

A further assay concerns the target T2, human factor XIa (Homo sapiens, UniProt P03951).
T2 construct: with human (0.04 nM) factor XIa
The assay is described as follows: Factor XIa Assay. It is filed as biochemical. As to conditions: human factor XIa 0.04 nM, substrate GPR-AFC, 25° C.

The structures appear in SMILES notation.

T1 sequence (P03952 391-638 limits assumed): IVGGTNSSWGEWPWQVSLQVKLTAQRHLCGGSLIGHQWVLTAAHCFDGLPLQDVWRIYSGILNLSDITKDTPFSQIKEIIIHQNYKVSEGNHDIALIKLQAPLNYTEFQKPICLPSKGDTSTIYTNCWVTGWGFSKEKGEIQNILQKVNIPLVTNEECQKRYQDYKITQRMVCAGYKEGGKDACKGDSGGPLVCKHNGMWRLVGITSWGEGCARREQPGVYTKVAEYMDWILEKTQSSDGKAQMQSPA
T1 sequence (P03952 20-390 partner limits assumed): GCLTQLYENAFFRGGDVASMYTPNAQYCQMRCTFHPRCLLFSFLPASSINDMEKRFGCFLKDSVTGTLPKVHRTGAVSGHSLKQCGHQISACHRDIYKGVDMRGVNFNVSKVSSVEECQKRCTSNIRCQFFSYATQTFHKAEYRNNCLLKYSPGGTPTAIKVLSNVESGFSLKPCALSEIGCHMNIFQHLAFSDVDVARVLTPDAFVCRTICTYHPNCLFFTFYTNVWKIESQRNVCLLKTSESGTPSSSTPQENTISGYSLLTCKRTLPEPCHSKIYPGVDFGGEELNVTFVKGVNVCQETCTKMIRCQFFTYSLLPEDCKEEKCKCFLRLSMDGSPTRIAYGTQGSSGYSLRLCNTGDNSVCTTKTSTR
T2 sequence (P03951 388-625 limits assumed): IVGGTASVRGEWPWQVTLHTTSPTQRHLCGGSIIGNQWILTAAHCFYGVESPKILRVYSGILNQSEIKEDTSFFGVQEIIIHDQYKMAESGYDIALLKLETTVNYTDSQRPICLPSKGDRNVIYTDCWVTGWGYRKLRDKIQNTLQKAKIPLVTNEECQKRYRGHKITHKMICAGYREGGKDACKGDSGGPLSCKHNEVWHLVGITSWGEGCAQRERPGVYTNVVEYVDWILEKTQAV
T2 sequence (P03951 19-387 partner limits assumed): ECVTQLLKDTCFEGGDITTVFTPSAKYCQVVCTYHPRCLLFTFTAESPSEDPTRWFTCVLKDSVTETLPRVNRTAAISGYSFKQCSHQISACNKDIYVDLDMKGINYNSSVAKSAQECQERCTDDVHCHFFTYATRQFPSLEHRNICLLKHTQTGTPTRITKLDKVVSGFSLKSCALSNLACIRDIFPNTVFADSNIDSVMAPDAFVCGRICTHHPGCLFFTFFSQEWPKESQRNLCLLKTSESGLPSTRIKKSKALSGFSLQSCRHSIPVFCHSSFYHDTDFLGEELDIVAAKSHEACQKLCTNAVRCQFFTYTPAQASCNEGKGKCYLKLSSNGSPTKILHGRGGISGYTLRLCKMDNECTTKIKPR

`O=C1Nc2ccc(Cl)c(F)c2[C@@]2(CCCN(C(=O)c3cnc(Cc4ccc(F)cc4)[nH]3)C2)O1` [Example 76, (R)-6-Chloro-5-fluoro-1′-(2-(4-fluorobenzyl)-1H-imidazole-5-carbonyl)spiro[benzo[d][1,3]oxazine-4,3′-piperidin]-2(1H)-one]: the concentration for half-maximal inhibition (IC50) at Human plasma kallikrein turned out to be 16.1 nM; against human factor XIa, 4580 nM.
For `O=C1Nc2ccc(Cl)c(F)c2[C@@]2(CCCN(C(=O)c3cnc([C@@H](O)c4ccc(F)cc4)[nH]3)C2)O1` [Example 77], the values for the half-maximal inhibitory concentration (IC50) on Human plasma kallikrein and against human factor XIa were 56.6 nM and 8130 nM, respectively.
On to `CCCCC(O)(c1ccc(F)cc1)c1ncc(C(=O)N2CCC[C@@]3(C2)OC(=O)Nc2ccc(Cl)c(F)c23)[nH]1` (stereo partly drawn) [Example 81, (3′R)-6-Chloro-5-fluoro-1′-(2-(1-(4-fluorophenyl)-1-hydroxypentyl)-1H-imidazole-5-carbonyl)spiro[benzo[d][1.3]oxazine-4,3′-piperidin]-2(1H)-one], for which the half-inhibitory concentration (IC50) on Human plasma kallikrein is 8.7 nM; at human factor XIa, 2300 nM.
For `O=C1Nc2ccc(Cl)c(F)c2[C@@]2(CCCN(C(=O)c3nnc(Cc4ccccc4)[nH]3)C2)O1` [Example 86, (R)-1′-(5-Benzyl-4H-1,2,4-triazole-3-carbonyl)-6-chloro-5-fluorospiro[benzo[d][1,3]oxazine-4,3′-piperidin]-2(1H)-one], the half-inhibitory concentration (IC50) amounted to 24.8 nM on Human plasma kallikrein and 6890 nM against human factor XIa.
On to `O=C1Nc2ccc(Cl)c(F)c2[C@@]2(CCCN(C(=O)c3nnc(C4(c5ccc(F)cc5)CCC4)[nH]3)C2)O1` [Example 88, (R)-6-Chloro-5-fluoro-1′-(5-(1-(4-fluorophenyl)cyclobutyl)-4H-1,2,4-triazole-3-carbonyl)spiro[benzo[d][1,3]oxazine-4,3′-piperidin]-2(1H)-one], for which the half-inhibitory concentration (IC50) on Human plasma kallikrein was 13.7 nM; against human factor XIa, 4440 nM.
In the same order, the values of `CC1(C)CN(C(=O)c2nnc(Cc3ccccc3)[nH]2)C[C@]2(C1)OC(=O)Nc1ccc(Cl)c(F)c12` [Example 89, (R)-1′-(5-Benzyl-4H-1,2,4-triazole-3-carbonyl)-6-chloro-5-fluoro-5′,5′-dimethylspiro[benzo[d][1,3]oxazine-4,3′-piperidin]-2(1H)-one] are 14.9 nM and 7200 nM.
In the case of `CC(C)(c1ccccc1)c1nnc(C(=O)N2CCC[C@@]3(C2)OC(=O)Nc2ccc(Cl)c(F)c23)[nH]1` [Example 93, (R)-6-Chloro-5-fluoro-1′-(5-(2-phenylpropan-2-yl)-4H-1,2,4-triazole-3-carbonyl)spiro[benzo[d][1,3]oxazine-4,3′-piperidin]-2(1H)-one], the 50% inhibitory concentration (IC50) on Human plasma kallikrein amounted to 29.9 nM; on human factor XIa it was 3160 nM.
In the case of `O=C1Nc2ccc(Cl)c(F)c2[C@@]2(CCCN(C(=O)c3nnc(C4(c5ccc(F)cc5)CCOCC4)[nH]3)C2)O1` [Example 94, (R)-6-Chloro-5-fluoro-1′-(5-(4-(4-fluorophenyl)tetrahydro-2H-pyran-4-yl)-4H-1,2,4-triazole-3-carbonyl)spiro[benzo[d][1,3]oxazine-4,3′-piperidin]-2(1H)-one], the IC50 at Human plasma kallikrein was found to be 5.6 nM; at human factor XIa, 2490 nM.
`CC1(C)CN(C(=O)c2nnc(C(C)(C)c3ccccc3)[nH]2)C[C@]2(C1)OC(=O)Nc1ccc(Cl)c(F)c12` [Example 95, (R)-6-Chloro-5-fluoro-5′,5′-dimethyl-1′-(5-(2-phenylpropan-2-yl)-4H-1,2,4-triazole-3-carbonyl)spiro[benzo[d][1,3]oxazine-4,3′-piperidin]-2(1H)-one]: the results for the IC50 on Human plasma kallikrein and on human factor XIa were 21.4 nM and 3010 nM, respectively.
As to `CC[C@@H](c1cc(C)c2nc[nH]c2c1)c1n[nH]c(C(=O)N2CCC[C@@]3(C2)OC(=O)Nc2ccc(Cl)c(F)c23)n1` [Example 109, (R)-6-Chloro-5-fluoro-1′-(3-((S)-1-(4-methyl-1H-benzo[d]imidazol-6-yl)propyl)-TH-1,2,4-triazole-5-carbonyl)spiro[benzo[d][1,3]oxazine-4,3′-piperidin]-2(1H)-one], the IC50 is 1.3 nM on Human plasma kallikrein and 646 nM at human factor XIa.

In general, IC50 refers to the concentration needed to halve the response being measured.
